Test results published in patent US20080312244A1, “Squaric Acid Derivatives as Protein Kinase Inhibitors” (priority 2005, published 2008).
pIC50: −log10 of the molar value.

Key:
[1] = target: T1, CHK1 kinase (Homo sapiens, UniProt O14757); experiment: Measurement of the CHK1 kinase activity (flashplate / filter binding method); type: biochemical; conditions: class symbols defined in table footnotes
T1 construct: glutathione S-transferase (GST); made in house; host or cells: Sf21 (S. frugiperda) insect cells, baculovirus expression vector
T1 sequence (O14757 1-476): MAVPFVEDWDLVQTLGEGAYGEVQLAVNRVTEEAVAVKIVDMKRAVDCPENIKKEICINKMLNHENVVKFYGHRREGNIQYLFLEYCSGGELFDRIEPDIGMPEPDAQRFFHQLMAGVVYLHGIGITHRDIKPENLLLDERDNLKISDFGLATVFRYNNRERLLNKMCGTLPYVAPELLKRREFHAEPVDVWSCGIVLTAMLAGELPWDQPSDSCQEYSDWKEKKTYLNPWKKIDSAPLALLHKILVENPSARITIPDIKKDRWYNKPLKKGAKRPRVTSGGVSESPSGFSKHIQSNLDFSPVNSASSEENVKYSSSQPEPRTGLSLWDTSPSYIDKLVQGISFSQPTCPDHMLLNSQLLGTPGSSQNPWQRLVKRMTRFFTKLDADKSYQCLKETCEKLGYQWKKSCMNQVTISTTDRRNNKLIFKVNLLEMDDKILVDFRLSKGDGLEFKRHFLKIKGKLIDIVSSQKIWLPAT
Procedure: CHK1 kinase is expressed for the purposes of protein production in insect cells (Sf21; S. frugiperda) and subsequent purification by affinity chromatography as fusion protein with glutathione S-transferase in a baculovirus expression vector. The cultivation, infection and digestion of the cells as well as the purification of the fusion protein by column chromatography are carried out in accordance with manufacturer-oriented generic working instructions.
The kinase activity is measured using various available measurement systems. In the scintillation proximity method (Sorg et al., J. of. Biomolecular Screening, 2002, 7, 11-19), the flashplate method or the filter binding test, the radioactive phosphorylation of a protein or peptide as substrate is measured using radioactively labelled ATP (γ^32P-ATP, (γ^33P-ATP). In the case of the presence of an inhibitory compound, a reduced radioactive signal, or none at all, can be detected. Furthermore, homogeneous time-resolved fluorescence resonance energy transfer (HTR-FRET) and fluorescence polarisation (FP) technologies are useful as assay methods (Sills et al., J. of Biomolecular Screening, 2002, 191-214).
The test plates used are 384-well streptavidin-coated Flashplates Plus® from Perkin Elmer (Cat. No. SMP410A001 PK). The assay plate is equilibrated with 75 μl of assay buffer per well 30 min before commencement of the experiment. The buffer is sucked out before commencement of the experiment, and the components of the kinase reaction described below are pipetted onto the plate.
CHK1 kinase, a biotinylated substrate peptide (for example CHKtide: […]), is incubated with radioactively labelled ATP in the presence and absence of test substances at […] and a total volume of 50 μl. The reaction is terminated using 25 μl of a 0.2 M EDTA solution. After incubation for 30 min at room temperature, the supernatants are filtered off with suction, and the wells are washed three times with 100 μl of 0.9% NaCl solution each time. The measurement of the bound radioactivity is carried out by means of a scintillation measuring instrument (Topcount NXT, Perkin-Elmer).
The full value used is the inhibitor-free kinase reaction. This should be approximately in the range 3000-4000 cpm. The pharmacological zero value used is staurosporin in a final concentration of 0.1 μM. The inhibitory values (IC50) are determined using the program RS1_MTS ( ).
Kinase reaction conditions per well:
0.15 μg of CHKtide ([…])
50 μl total volume (1-fold assay buffer reaction conditions)
5-20 mU of CHK1 kinase (diluted in 20 mM MOPS pH7.5, 1 mM EDTA, 0.1% β-mercaptoethanol, 0.01% Brij-35, 5% glycerol, 1 mg/ml of BSA) are incubated for 30 min at room temperature in the presence of 30-200 μM CHKtide in 25.5 μl in 1-fold reaction buffer (8 mM MOPS pH7, 0.2 mM EDTA, 10 mM magnesium acetate, 0.02 mM γ^33P-ATP [500-1000 cpm/pmol]). The reaction is stopped using 5 μl of 0.5 M ortho-phosphoric acid and filtered through P81 filter plates. After the filter plates have been washed a number of times, the bound radioactivity is determined in a scintillation counter.

| Compound | pIC50 [1] | melting point [°C] |
| --- | --- | --- |
| COc1cccc([C@H](C)Nc2c(Nc3ccc(O)c(-c4ccccn4)c3)c(=O)c2=O)c1 [Compound A59, 3-(4-Hydroxy-3-pyridin-2-ylphenylamino)-4-[(S)-1-(3-methoxyphenyl)ethylamino]cyclobut-3-ene-1,2-dione] | < 6.00 | – |
| O=c1c(NCc2cccc(O)c2)c(Nc2ccc(O)c(-c3ccccc3)c2)c1=O [Compound A2, 3-(3-Hydroxybenzylamino)-4-(4-hydroxy-3-phenylphenylamino)cyclobut-3-ene-1,2-dione] | < 6.00 | – |
| C[C@@H](Nc1c(Nc2cccc(-c3ccccn3)c2)c(=O)c1=O)c1cccc(O)c1 [Compound A6, 3-(3-Pyridin-2-ylphenylamino)-4-[(R)-1-(3-hydroxyphenyl)ethylamino]cyclobut-3-ene-1,2-dione] | < 6.00 | – |
| COc1cccc([C@@H](C)Nc2c(Nc3ccc(O)c(-c4ccccn4)c3)c(=O)c2=O)c1 [Compound A4, 3-(4-Hydroxy-3-pyridin-2-ylphenylamino)-4-[(R)-1-(3-methoxyphenyl)ethylamino]cyclobut-3-ene-1,2-dione] | < 6.00 | – |
| O=c1c(NCc2cccc(O)c2)c(Nc2ccc(O)c(-n3cccn3)c2)c1=O [Compound A75, 3-(3-Hydroxybenzylamino)-4-(4-hydroxy-3-pyrazol-1-ylphenylamino)cyclobut-3-ene-1,2-dione] | > 6.00 | – |
| CN(Cc1cccc(O)c1)c1c(Nc2ccc(O)c(-c3ccccn3)c2)c(=O)c1=O [Compound A68, 3-[(3-Hydroxybenzyl)methylamino]-4-(4-hydroxy-3-pyridin-2-ylphenylamino)cyclobut-3-ene-1,2-dione] | > 6.00 | – |
| O=c1c(NCc2cccc(O)c2)c(Nc2ccc(O)c(-n3ccnc3)c2)c1=O [Compound A74, 3-(3-Hydroxybenzylamino)-4-(3-imidazol-1-yl-4-hydroxyphenylamino)cyclobut-3-ene-1,2-dione] | < 6.00 | – |
| C[C@H](Nc1c(Nc2ccc(O)c(-c3ccccn3)c2)c(=O)c1=O)c1cccc(O)c1 [Compound A10, 3-(4-Hydroxy-3-pyridin-2-ylphenylamino)-4-[(S)-1-(3-hydroxyphenyl)ethylamino]cyclobut-3-ene-1,2-dione] | < 6.00 | – |
| O=c1c(NCc2cccc(O)c2)c(Nc2ccc(O)c(-c3ccncc3)c2)c1=O [Compound A23, 3-(3-Hydroxybenzylamino)-4-(4-hydroxy-3-pyridin-4-ylphenylamino)cyclobut-3-ene-1,2-dione] | > 6.00 | – |
| C[C@@H](Nc1c(Nc2ccc(O)c(-c3ccccn3)c2)c(=O)c1=O)c1ccccc1 [Compound A3, 3-(4-Hydroxy-3-pyridin-2-ylphenylamino)-4-[(R)-1-phenylethylamino]cyclobut-3-ene-1,2-dione] | < 6.00 | – |
| O=c1c(NCc2cccc(O)c2)c(Nc2ccc(O)c(-n3cccc3)c2)c1=O [Compound A73, 3-(3-Hydroxybenzylamino)-4-(4-hydroxy-3-pyrrol-1-ylphenylamino)cyclobut-3-ene-1,2-dione] | < 6.00 | – |
| O=c1c(NCc2cc(O)cc(O)c2)c(Nc2ccc(O)c(-c3ccccn3)c2)c1=O [Compound A63, 3-(3,5-Dihydroxybenzylamino)-4-(4-hydroxy-3-pyridin-2-ylphenylamino)cyclobut-3-ene-1,2-dione] | > 7.00 | – |
| COc1ccc(Nc2c(NCc3cccc(O)c3)c(=O)c2=O)cc1-n1ccnc1 [Compound A72, 3-(3-Hydroxybenzylamino)-4-(3-imidazol-1-yl-4-methoxyphenylamino)cyclobut-3-ene-1,2-dione] | < 6.00 | – |
| C[C@@H](Nc1c(Nc2ccc(O)c(-c3ccccn3)c2)c(=O)c1=O)c1cccc(O)c1 [Compound A5, 3-(4-Hydroxy-3-pyridin-2-ylphenylamino)-4-[(R)-1-(3-hydroxyphenyl)ethylamino]cyclobut-3-ene-1,2-dione] | > 7.00 | – |
| COc1cccc([C@@H](C)Nc2c(Nc3ccc(O)c(-n4cccn4)c3)c(=O)c2=O)c1 [Compound A76, 3-(4-Hydroxy-3-pyrazol-1-ylphenylamino)-4-[(R)-1-(3-methoxyphenyl)ethylamino]cyclobut-3-ene-1,2-dione] | > 6.00 | – |

Second part, the compound after the results:

| pIC50 [1] | melting point [°C] | Compound |
| --- | --- | --- |
| > 6.00 | – | CNS(=O)(=O)c1cccc(CNc2c(Nc3ccc(O)c(-c4ccccn4)c3)c(=O)c2=O)c1 [Compound A67, 3-(3-Methylaminosulfonylbenzylamino)-4-(4-hydroxy-3-pyridin-2-ylphenylamino)cyclobut-3-ene-1,2-dione] |
| > 7.00 | – | O=c1c(NCc2ccc(O)c(O)c2)c(Nc2ccc(O)c(-c3ccccn3)c2)c1=O [Compound A61, 3-(3,4-Dihydroxybenzylamino)-4-(4-hydroxy-3-pyridin-2-ylphenylamino)cyclobut-3-ene-1,2-dione] |
| > 7.00 | 271 to 272 | O=c1c(NCc2cccc(O)c2)c(Nc2ccc(O)c(-c3ccccn3)c2)c1=O [Compound A1, 3-(3-hydroxybenzylamino)-4-(4-hydroxy-3-pyridin-2-ylphenylamino)cyclobut-3-ene-1,2-dione] |
| > 6.00 | – | NS(=O)(=O)c1cccc(CNc2c(Nc3ccc(O)c(-c4ccccn4)c3)c(=O)c2=O)c1 [Compound A12, 3-(3-Aminosulfonylbenzylamino)-4-(4-hydroxy-3-pyridin-2-ylphenylamino)cyclobut-3-ene-1,2-dione] |
| > 6.00 | – | O=c1c(NCCc2cccc(O)c2)c(Nc2ccc(O)c(-c3ccccn3)c2)c1=O [Compound A60, 3-[2-(3-Hydroxyphenyl)ethylamino]-4-(4-hydroxy-3-pyridin-2-ylphenylamino)cyclobut-3-ene-1,2-dione] |
| > 6.00 | – | O=c1c(NCc2ccc(F)c(O)c2)c(Nc2ccc(O)c(-c3ccccn3)c2)c1=O [Compound A65, 3-(4-Fluoro-3-hydroxybenzylamino)-4-(4-hydroxy-3-pyridin-2-ylphenylamino)cyclobut-3-ene-1,2-dione] |
| > 6.00 | – | NC(=O)c1cccc(CNc2c(Nc3ccc(O)c(-c4ccccn4)c3)c(=O)c2=O)c1 [Compound A66, 3-(3-Aminocarbonylbenzylamino)-4-(4-hydroxy-3-pyridin-2-ylphenylamino)cyclobut-3-ene-1,2-dione] |
| < 6.00 | – | COc1cc(CNc2c(Nc3ccc(O)c(-c4ccccn4)c3)c(=O)c2=O)ccc1F [Compound A62, 3-(4-Fluoro-3-methoxybenzylamino)-4-(4-hydroxy-3-pyridin-2-ylphenylamino)cyclobut-3-ene-1,2-dione] |
| > 6.00 | – | CC(=O)Nc1cccc(CNc2c(Nc3ccc(O)c(-c4ccccn4)c3)c(=O)c2=O)c1 [Compound A64, 3-(3-Acetamidobenzylamino)-4-(4-hydroxy-3-pyridin-2-ylphenylamino)cyclobut-3-ene-1,2-dione] |
